Literature values as cited in patent US11555040B2, “Oxepinopyrazole derivatives as inhibitors of P13-kinase activity” (GLAXOSMITHKLINE INTELLECTUAL PROPERTY DEVELOPMENT LIMITED, priority 2017, dated 2023).

System: amphetamine-induced psychosis
Details: Law et al. 2012

Q: For `Cc1ccccc1-n1c(Cn2cnc3c(N)ncnc32)nc2cccc(C)c2c1=O` [IC87114], which “efficacy in mouse model of amphetamine-induced psychosis” value is on record?
A: Its value is “remarkable efficacy”.
